We go through two compounds from patent publication US7201899B2, “Materials and methods for management of hyperacute rejection in human xenotransplantation” (BresaGen Limited, priority 1994, dated 2007).

Molecules are shown by their SMILES. Entries after “also recorded” stand apart in the source; their conditions may differ.

Experiment [1] has as its system pig RBC. In words: Hemagglutination of pig RBC by human serum: sugar inhibition. Format: cell-based. The following applies: for Inhibitory Concentration: inhibition of pig RBC hemagglutination by pooled human AB serum; for concentration range inhibiting agglutination (in words): pig RBC agglutination by human serum. As to the method: The methods used to investigate the hemagglutination of pig red blood cells (RBC's) by human serum was adapted from the methods described by Galili, J. Exp. Med. 160: 1579–81 (1984) and Severson, Immunol. 96: 785–789 (1966).
A. Media/Solution Preparation • 1. Human Serum Albumin (HSA) (CSL, Melbourne, Australia) (5 mg/ml) was dissolved in PBS, filter sterilized, and stored at 4° C. • 2. Preparation of sugars: • 1 M stock solutions of sugar were prepared by dissolving the amount indicated in 100 ml of PBS. Sodium azide was added (0.02%) and solutions stored at 4° C.
B. Preparation of Pig RBC'S • 1. Heparinised pig blood (Animal Resources, Clayton, Australia) is centrifuged at 800 RPM for 10 min to pellet the RBC. • 2. The RBC pellet is washed by resuspension in PBS (10 ml) and recentrifugation (repeated 3 times). After the final wash, the RBC pellet is resuspended in 10 ml PBS. • 3. A 0.5% solution of RBC's is prepared by adding 50 ul RBC solution (from step 2, above) to 10 ml PBS containing 0.5 g/100 ml of HSA.
C. Preparation of 96-well Microtitre Plates (Titretek. USA) • 1. Add 25 ul of PBS to each well. • 2. Add 25 ul of pooled human AB serum (CSL, Melbourne, Australia) to column 1 and serially dilute by removing 25 ul from column 1 and adding to column 2, then repeating by sequentially removing and adding 25 ul from and to each well across the plate, finally discarding 25 μl from column 11 and adding no serum to column 12. • 3. Add 25 ul of sugar solution to each row in decreasing concentrations down rows. No sugar solution is added to the final row. • 4. Incubate at 4° C. overnight and then at 37° C. for 30 min. • 5. Add 50 ul of 0.5% pig RBC to each well; vortex and incubate at room temperature for 2 hours. Determine agglutination visually. II. Results

Experiment [2] has as its system pig kidney, heart and liver sections. Kind of experiment: Immunostaining of pig tissues with anti-GAL antibodies. The experiment is classed as binding. The following applies: pig renal cortex sections, proximal tubule brush borders; sugar 0.1 M. On the procedure: Pig kidney was fixed in formalin and dehydrated before embedding in Paraplast. Pig heart and liver were fixed in paraformaldehyde-lysine-periodate fixative and snap frozen in O.C.T. embedding compound (10.24% w/w polyvinyl alcohol, 4.26% w/w polyethylene glycol, 85.50% w/w nonreactive ingredients; Tissue Tek®, Miles, Inc., Elkhart, Ind., USA). Four μm-thick sections of pig heart and liver and 2 μm-thick sections of kidney were incubated with purified anti-GAL antibodies (undiluted, 1:2 and 1:4) for 60 min. and then incubated with a fluorescein isothiocyanate (FITC)-conjugated sheep anti-human immunoglobulin F(ab′) fragment. (Silenus Laboratories, Hawthorn, Australia) (1:100) for 30 min. or a peroxidase-conjugated rabbit anti-human IgG (Dakopatts, Glostrup, Denmark) (1:50) for 60 min. Control sections were analyzed for autofluorescence, with the secondary antibody alone, or with the anti-GAL-depleted IgG or normal pig serum as the primary antibody. […] The specificity of the anti-GAL antibodies was tested by pre-incubating sections of pig renal cortex with a variety of sugars, including melibiose, lactose, sucrose and glucose at 0.1 M.

For experiment [3], the system named is PK-1 and PAE's cells. In words: Antibody staining and FACS analysis of porcine cells. Format: binding. As to conditions: for inhibition of anti-GAL IgM and/or IgG staining of porcine cells by sugar: anti-GAL antibodies pre-incubated with sugar (0.1 M) at 37° C. for 30 min; for decrease of anti-GAL antibody staining of PAE's (FIG. 1): anti-GAL antibody pre-incubated with sugar, versus anti-GAL antibody alone. As to the method:
C. Antibody Staining and FACS Analysis • 1) Add 2 ml TED to a 75 cm^2 culture flask containing PK-1 or PAE'S, and incubate at room temperature for 10 min. • 2) Add RPMI plus 10% FCS (5 ml) to neutralize trypsin. • 3) Pellet cells by centrifugation (700 g, 5 min, • 4) Wash cells by resuspension and centrifugation in Hanks Buffer (×2). • 5) Pellet cells by centrifugation (700 g, 5 min, 4° C.). • 6) Resuspend cell pellet in Hanks buffer containing purified anti-GAL antibodies, GAL-depleted serum or GAL-depleted IgG and incubate at 4° C. for 60 min. All antibodies were used undiluted, or diluted 1:2 or 1:4 in Hanks buffer. • 7) Add 1 ml of Hanks Buffer, pellet cells by centrifugation and aspirate off supernatant. • 8) Resuspend pellet in FITC-labelled sheep-anti-human IgG Fab2 or IgM Fab2 (Silenus, Hawthorn, Australia) diluted 1:80 in Hanks buffer. • 9) Incubate for 30 min. at 4° C. • 10) Wash three times with Hanks buffer; resuspend pellet from final wash in 0.5 ml Hanks buffer. • 11) Analyze stained samples using a FACScan II (Becton Dickinson) according to the manufacturer's instructions.
The specificity of the anti-GAL antibody binding to porcine cells was determined by examining the ability of sugars of various structures to inhibit antibody binding. In these competition studies the anti-GAL antibodies were pre-incubated with sugar (0.1 M) at 37° C. for 30 min before adding to the cells.
A general note: A flow cytometer gives signals particle by particle.

Take `OC[C@H]1O[C@@H](O[C@H]2[C@H](O)[C@@H](O)[C@@H](O)O[C@@H]2CO)[C@H](O)[C@@H](O)[C@H]1O` [Lactose, 4-O-β-D.galactopyranosyl-α-D-glucose]: in experiment [1], the “Inhibitory Concentration” value is >10^−1M and the “concentration range inhibiting agglutination (in words)” value is “only inhibitory when very high concentrations were used”. The “inhibition of anti-GAL antibody binding to pig tissue by sugar” value in experiment [2] is given as “not inhibited”. Further, in experiment [3], the “inhibition of anti-GAL IgM and/or IgG staining of porcine cells by sugar” value is given as “not inhibited” and the “decrease of anti-GAL antibody staining of PAE's (FIG. 1)” value is on record as “not affected significantly”.
In the case of `O=C[C@H](O)[C@@H](O)[C@H](O)[C@H](O)CO[C@H]1O[C@H](CO)[C@H](O)[C@H](O)[C@H]1O` [Melibiose, 6-O-α-D-galactopyranosyl-D-glucose], in experiment [1], the “Inhibitory Concentration” value was determined as 0.0005 M and the “concentration range inhibiting agglutination (in words)” value is listed as “μM to mM range”. In experiment [2], the “inhibition of anti-GAL antibody binding to pig tissue by sugar” value is “reduced to near background; also recorded: inhibited”. Also, in experiment [3], the “inhibition of anti-GAL IgM and/or IgG staining of porcine cells by sugar” value was “inhibited” and the “decrease of anti-GAL antibody staining of PAE's (FIG. 1)” value is “approximately 10 fold less”.
